Measured values published in the Kinase Knowledgebase extract (Sharma et al. 2016).

Each molecule was assayed against MAPK14 (UniProt Q16539) (assay: p38 Inhibition Assay (in Vitro)).
MAPK14, sequence (Q16539 whole entry, looked up): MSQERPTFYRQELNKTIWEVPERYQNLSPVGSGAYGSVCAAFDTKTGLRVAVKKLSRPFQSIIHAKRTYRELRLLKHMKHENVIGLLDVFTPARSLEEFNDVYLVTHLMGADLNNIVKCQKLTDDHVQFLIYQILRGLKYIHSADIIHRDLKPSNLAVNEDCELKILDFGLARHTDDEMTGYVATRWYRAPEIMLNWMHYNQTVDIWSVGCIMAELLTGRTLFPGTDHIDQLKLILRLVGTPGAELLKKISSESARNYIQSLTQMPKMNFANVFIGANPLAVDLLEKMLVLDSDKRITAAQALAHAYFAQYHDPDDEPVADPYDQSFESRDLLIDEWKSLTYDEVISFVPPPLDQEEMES

Row | IC50 | Compound
1 | > 30 µM | O=C(NCc1ccc(S(=O)(=O)N2CCC(n3cnc4ccccc43)CC2)s1)c1ccc(Cl)cc1
2 | > 30 µM | O=C(NCc1ccc(S(=O)(=O)N2CCN(C(=O)c3cccc4ccccc34)CC2)s1)c1ccc(Cl)cc1
3 | > 30 µM | O=C(NCc1ccc(S(=O)(=O)N2CCC(Nc3cccc(S(=O)(=O)CCO)c3)CC2)s1)c1ccc(Cl)cc1
4 | > 30 µM | O=C(NCc1ccc(S(=O)(=O)N2CCC(Nc3ccc(Cl)cc3)CC2)s1)c1ccc(Cl)cc1
5 | > 30 µM | O=C(NCc1ccc(S(=O)(=O)N2CCC(n3nnc4ccccc43)CC2)s1)c1ccc(Cl)cc1
6 | > 30 µM | O=C(NCc1ccc(S(=O)(=O)N2CCCN(C(=O)Cc3ccccc3)CC2)s1)c1ccc(Cl)cc1

Continued, molecule first:

Row | Compound | IC50
7 | COc1cccc(C(=O)NCc2ccc(S(=O)(=O)N3CCC(Nc4ccccc4[N+](=O)[O-])CC3)s2)c1 | > 30 µM
8 | COc1cccc(NC2CCN(S(=O)(=O)c3ccc(CNC(=O)c4ccc([N+](=O)[O-])cc4)s3)CC2)c1 | > 30 µM
9 | NS(=O)(=O)c1cccc(NC2CCN(S(=O)(=O)c3ccc(CNC(=O)c4ccc(Cl)cc4)s3)CC2)c1 | > 30 µM
10 | O=C(NCc1ccc(S(=O)(=O)N2CCC(n3nnc4ccccc43)CC2)s1)c1ccccc1O | > 30 µM
11 | O=C(NCc1ccc(S(=O)(=O)N2CCC(C(=O)c3ccc(F)cc3F)CC2)s1)c1ccc(Cl)cc1 | > 30 µM
12 | CCCc1cccc(NC2CCN(S(=O)(=O)c3ccc(CNC(=O)c4ccc(Cl)cc4)s3)CC2)c1 | > 30 µM
13 | COC(=O)c1cccc(NC2CCN(S(=O)(=O)c3ccc(CNC(=O)c4ccc([N+](=O)[O-])cc4)s3)CC2)c1 | > 30 µM
14 | O=C(NCc1ccc(S(=O)(=O)N2CCC(Nc3ccccc3)CC2)s1)c1ccc(Cl)cc1 | > 30 µM
